# Results taken from patent US20220241369A1, “COMPOSITIONS AND METHODS OF MODULATING INFLAMMATION” (La Jolla Institute for Allergy and Immunology, priority 2018, published 2022).
# How the values were obtained:
# [1] = system: BEAS-2B human bronchial epithelial cells; assay: HRF secretion, western blot, BEAS-2B; format: cell-based; settings: cultured cells scraped and treated with adenosine and ATP
# Text: As lung epithelial cells are exposed to the environment, HRF secretion was studied using BEAS-2B human bronchial epithelial cells. A small amount of HRF was secreted constitutively, but house dust mite allergens induced the secretion of high-molecular-weight HRF species (HMW-HRFs). Various cytokines including epithelial derived cytokines as well as Th2 cytokines and proinflammatory cytokines further enhanced HDM-induced secretion of HMW-HRFs.
# Cultured cells were scraped and treated with adenosine and ATP, which should be abundantly present in inflammatory or injured tissues. These conditions induced secretion of HRF monomer, dimer and HMW-HRFs like stimulation with HDM plus cytokines.
# Culture supernatants were analyzed by SDS-PAGE under nonreducing (−DTT) and reducing (+DTT) conditions, followed by western blotting for HRF probing. HDM-induced HRF secretion was enhanced not only by Th2 cytokines (IL-4, IL-5, and IL-13), but also by epithelial derived cytokines (IL-25, IL-33, and TSLP) and proinflammatory cytokines (IL-1beta, IL-6 and TNF). med, medium alone; US, unstimulated; HDM, house dust mite; CR, cockroach; RW, ragweed; Af, Aspergillus fumigatus. Arrowhead, HRF monomer.
# [2] = system: c-Kit+ mucosal mast cells of the small intestine; assay: Ex vivo mast cell activation test (MCAT); format: cell-based, mouse; settings: cells from allergic mice, HRF-2CA 300 μg/ml
# Method: FIGS. 2A-2C show mucosal mast cells can be activated ex vivo by antigen. Cells were released with EDTA from small intestines of non-sensitized/OVA challenged (Cont) or OVA-sensitized/OVA-challenged (OVA) mice, and mononuclear cells were selected. The cells were incubated for 15 min at 37° C. with OVA or anti-IgE antibody, and activation of Kit^+ mast cells was measured by flow cytometry (FIG. 2A, FIG. 2B). **, ***: p<0.01, p<0.001 by Student's t-test. (n=2; a representative of 2 independent experiments) (FIG. 2C) Mucosal cells derived from OVA-sensitized/OVA-challenged mice were stimulated with PBS (n=4), OVA (10 ng/ml, n=4) or HRF dimer (100 μg/ml, n=2) in the presence or absence of HRF-2CA (300 μg/ml).
# FIGS. 11A-11C show HRF dimer, but not monomer can activate mast cells. (FIG. 11A) Purified dimeric and monomeric HRF expressed in E. coli. Recombinant HRF-[…] was purified first by Histrap HP and then Sephacryl S-200 HR16/60. Two peaks were observed by Sephacryl size fractionation. The first (Fr1) and second (Fr3) peaks contained dimer and monomer, respectively, as shown by SDS-PAGE. Fr1 and Fr3 were used for mast cell stimulation. (FIG. 11B) Cells were released with 10 mM EDTA from small intestines of OVA-sensitized/OVA-challenged mice, and mononuclear cells were selected. The cells were incubated for 15 min at 37° C. with mHRF monomer or dimer (100 μg/ml), or PBS, and Kit^+ mast cell activation (LAMP-1^+) was measured by flow cytometry (n=3). (FIG. 11C) Control experiments indicate an excellent specificity of the assay for HRF multimers. HRF-2CA (2CA) was used as a monomer control (n=2 for each concentration). Note that total concentrations of the 1:9 mixture of dimer:monomer gave almost the same luminescence values as did ten-fold less concentrations of dimer.
# Twenty-four hours after the last OVA challenge, mice were sacrificed and small intestines (0.5-15 cm from stomach) were collected. The intestinal tissues were opened longitudinally and washed with PBS. Then, the tissues were incubated with 10 mM EDTA-PBS for 30 min at 37° C. After incubation, the tissues were transferred to 30 ml PBS in 50 ml tubes and vigorously shaken. After washed, the cells were resuspended in 40% Percoll solution and slowly loaded on the top of 75% Percoll solution. The cells were then centrifuged (2000 rpm, 20 min) and lymphocytes were collected. The cells were once centrifuged and resuspended in Tyrode's buffer. Abs (Biotin-anti-CD4 mAb (clone RM4-5), Biotin-anti-CD8 mAb (clone 53-6.7), Biotin-anti-B220 mAb (clone RA3-6B2), Biotin-anti-CD326 mAb (clone G8.8), PE-anti-CD117 (clone 2B8), AlexaFluor647-anti-LAMP-1 mAb (clone 1D4B)) (Biolegend) were added and cells were then stimulated with OVA, anti-IgE (clone RME-1, BioLegend) and recombinant dimeric murine HRF for 15 min at 37° C. After activation, cells were washed and incubated with FITC-streptavidin (Catalog #405202, Biolegend) for 30 min at 4° C. LAMP-1 expression was detected using FACS Calibur. Data were analyzed using FlowJo software.
# [3] = system: OVA-induced food allergy (allergic diarrhea); assay: IgE-mediated experimental food allergy, i.g. pretreatment with HRF inhibitor before each OVA challenge; format: in vivo, mouse; settings: i.g. pretreatment; serum ELISA
# Method: FIGS. 1A-1I show GST-N19 inhibits the development of diarrhea and intestinal mastocytosis in murine food allergy. Mice were i.p. sensitized with OVA ([…]) plus alum on days 0 and 14. From day 28, mice were i.g. challenged with OVA (50 mg) three times a week. Sensitized mice were either non-pretreated (−) or i.g. pretreated with 100 μg of GST or GST-N19 (N19). (FIG. 1A) Procedure scheme. (FIG. 1B) The development of diarrhea was monitored for 90 min after each OVA challenge. (n=5 for non-sensitized group, n=3 for inhibitor non-pretreated group, n=4 for GST group, n=6 for N19 group, data are representative of at least 3 independent experiments) Log-rank test: p=0.028 (GST vs. GST-N19), p=0.036 (control vs. GST-N19). […] (FIG. 1C-FIG. 1E) Total IgE, IgG1, HRF, and HRF-reactive IgE and IgG in sera were measured by ELISA. (FIG. 1F) Serum mMCP-1 was also measured by ELISA. (FIG. 1G) Sections of jejunum were stained with chloroacetate esterase to identify mast cells. Sections indicated by rectangles are enlarged in lower rows. Bar=100 μm in large pictures and 50 μm in insets. (FIG. 1H) Flow cytometry was performed to enumerate MMC9s (Lin^−c-Kit^+ST2^+IL-17RB^−Integrin β7^lo) in jejunum. (n=14 for non-sensitized group, n=15 for inhibitor non-pretreated group, n=9 for GST group, n=9 for GST-N19 group, pooled data of 3 independent experiments) (FIG. 1I) Cytokine mRNAs in jejunum were quantified by qRT-PCR. *, **: p<0.05, p<0.01 by ANOVA with Tukey's multiple comparison.
# Mice were i.p. sensitized with OVA (50 μg/mouse) plus alum on days 0 and 14. From day 28, mice were i.g. challenged with OVA (25 or 50 mg) or PBS (control) three times a week. Before each challenge, mice were starved for 3 h, then i.g. pretreated with GST, GST-N19 (100 μg/mouse), synthetic N19 peptide, or HRF-2CA. The development of diarrhea was monitored for 90 min after OVA challenge. Diarrhea severity (30) was based on states of stool: solid (score 0), funicular (score 1), slurry (score 2), and watery (score 3).
# For histologic analysis, jejunal tissue was fixed in 10% formalin. Mast cells in jejunal sections were detected by chloroacetate esterase staining. IgE, IgG, IgG1, IgG2a, mMCP-1, HRF, HRF-reactive IgE, and HRF-reactive IgG 24 h after the last OVA challenge were measured by ELISA (see Supplemental Information). Cytokine mRNAs in jejunum were quantified by qRT-PCR.
# Twenty-four hours after the last OVA challenge, mice were sacrificed and small intestines (0.5-15 cm from stomach) were collected. The intestinal tissues were opened longitudinally and washed with HBSS. The washed tissues were incubated with 5 mM EDTA-HBSS for 30 min at 4° C., transferred to 30 ml HBSS in 50 ml tubes, and vigorously shaken to remove intestinal epithelial cells. The tissues were then washed with 10 ml of 10% FCS RPMI medium. Tissues were cut into tiny pieces and incubated with 2.4 mg/ml Collagenase D and 0.2 mg/ml DNase for 30 min at 37° C. Then cells were washed, resuspended in 44% Percoll solution, and slowly loaded on the top of 67% Percoll solution. The cells were centrifuged (1800 rpm, 20 min) and lymphocyte fractions were collected and used for detection of MMC9s (Lin^−c-Kit^+ST2^+IL-17RB^−Integrin β7^lo).
# The cells were first incubated with 2.4G2 for 15 min at 4° C. and further incubated with Abs (PE-anti-07 integrin mAb (clone FIB504), PerCP/Cy5.5-anti-CD4 mAb (clone RM4-5), PerCP/Cy5.5-anti-CD8 mAb (clone 53-6.7), PerCP/Cy5.5-anti-CD11b mAb (clone M1/70), PerCP/Cy5.5-anti-CD11c mAb (clone N418), PerCP/Cy5.5-anti-B220 mAb (RA3-6B2), PerCP/Cy5.5-anti-Ly-6G/Ly-6C mAb (clone RB6-8C5), PerCP/Cy5.5-anti-CD335 mAb (clone 29A1.4), AlexaFluor647-anti-IL-17RB (clone 9B10), APC/Cy7-anti-CD117 (clone 2B8), Biotin-anti-ST2 (clone DIH9)) (Biolegend) for 30 min at 4° C. After washed, the cells were incubated with SA-BV421 (Biolegend) for 30 min at 4° C. MMC9 population was identified using FACS Canto. Data were analyzed using FlowJo software.
# IgE+ mMCP-1+ mast cells = assay: Localization of gavaged HRF inhibitors in jejunum by confocal microscopy; format: in vivo, mouse; settings: mice with allergic diarrhea, 1 h after i.g. gavage of 0.1 mg, anti-GST staining
# Method: HRF multimers in the jejunum of non-sensitized/OVA challenged (Cont, n=6) or OVA-sensitized/OVA-challenged (OVA, n=5) mice were quantified by a newly developed ELISA (FIG. 3A, FIG. 3C). HRF was also measured by ELISA (FIG. 3B). HRF dimer and monomer were quantified by western blotting in control (Cont) and food allergic mice treated without (OVA) or with GST (GST) or GST-N19 (N19) (n=5 for each group) (FIG. 3D). Allergic diarrhea was induced by 6 challenges. On the day of 7th challenge, the mice were gavaged with 0.1 mg of GST or GST-N19 (FIG. 3E). One hour later, mice were sacrificed without OVA challenge. Jejunum tissues were stained for GST, IgE, and mMCP-1 before confocal microscopy (n=5 for GST and n=6 for GST-N19). Arrows indicate cells positive for GST or GST-N19 as well as IgE and mMCP-1. […] Bars=50 μm.
# Jejunum biopsy was fixed in 4% paraformaldehyde at 4° C., washed in 10-20% sucrose in phosphate buffered saline, and embedded in O.C.T. compound (Sakura Finetek, Japan). Cyrosections were made in 6 μm and blocked with 2% skim milk. Immunostaining was performed with anti-HRF (rabbit polyclonal FL-172), anti-GST (rabbit polyclonal Z-5) (Santa Cruz Biotechnology), anti-IgE (clone RME-1 from Biolegend and clone R35-72 from BD Biosciences), anti-mMCP1 (Catalog #AF5146, R&D Systems), anti-CD45 (clone 30-F11), anti-CD63 (clone NVG-2) (Biolegend), and anti-Siglec F (clone E50-2440, BD Biosciences) as primary antibodies, and anti-Rabbit Alexa Fluor 647 (Catalog #A21245), anti-Rat Alexa Fluor 568 (Catalog #A11077), and anti-Sheep Alexa Fluor 555 (Catalog #A11015) (Thermo Fisher Scientific) as secondary antibodies. Coverslips were mounted with Prolong Gold with DAPI (Thermo Fisher Scientific) and fluorescence was observed under Leica TCS SP2 confocal microscopy (Leica) and Nuance Multi spectral Imaging System (PerkinElmer).
# Applicant next tested whether HRF inhibitors target mucosal mast cells. To this end, mice with allergic diarrhea were i.g. gavaged with GST-N19 or GST, and their location was identified 1 h after their gavage.
compound,measurement,setting,value
Nc1ncnc2c1ncn2[C@@H]1O[C@H](COP(=O)(O)OP(=O)(O)OP(=O)(O)O)[C@@H](O)[C@H]1O [ATP],"secretion of HRF monomer, dimer and HMW-HRFs",[1],induced
synthetic N19 peptide: synthesized N19 peptide (N-terminal 19 amino acids of HRF); HRF inhibitor (MIIYRDLISHDEMFSDIYK),HRF-induced activation of mucosal mast cells,[2]; HRF dimer 100 μg/ml,significantly suppressed
same,OVA-induced activation of mucosal mast cells,[2]; OVA 10 ng/ml,significantly suppressed
same,"levels of total IgE, IgG1, IgG2a or HRF-reactive IgE and IgG",[3],failed to affect
Nc1ncnc2c1ncn2[C@@H]1O[C@H](CO)[C@@H](O)[C@H]1O [adenosine],"secretion of HRF monomer, dimer and HMW-HRFs",[1],induced
GST: GST protein used as control for GST-N19 [reference compound],IgE+ mMCP-1+ mast cells co-localized with the substance,IgE+ mMCP-1+ mast cells,34%
